The numbers were not newly measured in US20040063658A1, “Nucleoside derivatives for treating hepatitis C virus infection” (priority 2002, published 2004), which cites them from elsewhere.

The conditions of series [1]: patients treated at currently recommended doses.
The test system of a further series is HCV. As to conditions: treatment of HCV with interferon, long term efficacy.

Turning to `NC(=O)c1ncn([C@@H]2O[C@H](CO)[C@@H](O)[C@H]2O)n1` [Ribavirin, 1-β-D-ribofuranosyl-1H-1,2,-4-triazole-3-carboxamide], the “patients with significant hemolysis” value in series [1] is 10-20%.
With interferon, the response rate entry in the series on HCV is given as “about 25%”.
